Test results from patent publication US8932597B2 (priority 2008, dated 2015).

Columns and labels:
[1] = test system: HuM2e antibody 23K12; format: binding, human
[2] = test system: anti-M2 human monoclonal antibody Z3G1; format: binding

Row | Substance | Signal (peptides that bind to 23K21 and 8I10) [1] | Signal (peptides that bind to Z3G1) [2] | Signal (peptides that show specific binding to Z3G1) [2]
1 | 568 (SLLTEVETPIRNEWGCRCQDSSD; epitope peptide) [compound 568] | 877 | 2438 | 
2 | 300 (SLLTEVETKIRNEWGCRCNDSSD; epitope peptide) [compound 300] | 1960 |  | 2485
3 | 696 (SLLTEVETPIRNEHGCRCNDSSD; epitope peptide) [compound 696] | 719 |  | 2398
4 | 698 (SLLTEVETPIRDEWGCRCNDSSD; epitope peptide) [compound 698] | 716 |  | 2187
5 | 389 (SLLTEVETPYRNEWGCRCNDSSD; epitope peptide) [compound 389] | 1350 |  | 2303
6 | 524 (SLLTEVETPIDNEWGCRCNDSSD; epitope peptide) [compound 524] | 1001 |  | 2337
7 | 201 (CEVETPIRNEWGSRSNCSLLTEVETC; epitope peptide) [compound 201] | 1007 |  | 2288
8 | 339 (MSLLTECGMSLLTEV; epitope peptide) [compound 339] | 1658 | 2170 | 
9 | 690 (SLLTEVHTPIRNEWGCRCNDSSD; epitope peptide) [compound 690] | 722 |  | 2057
10 | 425 (SLLTEVETPIRNEWGCRCNDSKD; epitope peptide) [compound 425] | 770 | 2361 | 
11 | 650 (SLLTEVETPVRNEWGCRCNDSSD; epitope peptide) [compound 650] | 758 |  | 2331
12 | 324 (SLCTEVGSLLTEV; epitope peptide) [compound 324] | 1772 |  | 1780
13 | 287 (MSLLTEVGMSLLTEV; epitope peptide) [compound 287] | 2267 | 2878 | 
14 | 328 (SLETEVETPIRNEWGCRCNDSSD; epitope peptide) [compound 328] | 1720 |  | 1963
15 | 321 (ALLTEVETPIRNEWGCRCNDSSD; epitope peptide) [compound 321] | 1794 |  | 2225
16 | 700 (SLLTEVETSIRNEWGCRCNDSSD; epitope peptide) [compound 700] | 715 |  | 2151
17 | 546 (SLLTEVETPIRNRWGCRCNDSSD; epitope peptide) [compound 546] | 921 |  | 2257
18 | 605 (SLLTEVETPIRNMWGCRCNDSSD; epitope peptide) [compound 605] | 820 |  | 2455
19 | 674 (SLLTEVETPIRNEWGCRCTDSSD; epitope peptide) [compound 674] | 733 | 2253 | 

Row | Substance | Signal (peptides that bind to 23K21 and 8I10) [1] | Signal (peptides that bind to Z3G1) [2] | Signal (peptides that show specific binding to Z3G1) [2]
20 | 653 (SLLTEVETIIRNEWGCRCNDSSD; epitope peptide) [compound 653] | 756 |  | 2096
21 | 720 (SLLTEVETPIINEWGCRCNDSSD; epitope peptide) [compound 720] | 699 |  | 2262
22 | 239 (CSLLTEVETCEVETPIRNEWGSRSNC; epitope peptide) [compound 239] | 821 |  | 2549
23 | 342 (SLLTEVETPIRNEWGCRCNSSSD; epitope peptide) [compound 342] | 1637 | 2440 | 
24 | 686 (SLLTEVETPIRNEWGCRLNDSSD; epitope peptide) [compound 686] | 728 |  | 2363
25 | 687 (SLLTEVETPCRNEWGCRCNDSSD; epitope peptide) [compound 687] | 724 |  | 2050
26 | 418 (SLLTEVETPIRNEWGCRCNDWSD; epitope peptide) [compound 418] | 929 | 2491 | 
27 | 352 (SLQTEVETPIRNEWGCRCNDSSD; epitope peptide) [compound 352] | 1561 |  | 2025
28 | 575 (SLLTEVRTPIRNEWGCRCNDSSD; epitope peptide) [compound 575] | 866 |  | 1024
29 | 341 (CSLLTEVCSLLTEC; epitope peptide) [compound 341] | 1644 |  | 1122
30 | 564 (SLLTEVELPIRNEWGCRCNDSSD; epitope peptide) [compound 564] | 886 |  | 2407
31 | 597 (SLLTEVETGIRNEWGCRCNDSSD; epitope peptide) [compound 597] | 835 |  | 2366
32 | 579 (SLLTEVETPIRNEWGCRWNDSSD; epitope peptide) [compound 579] | 859 | 2364 | 
33 | 337 (SLLTEVETPIRNEWGCRCNYSSD; epitope peptide) [compound 337] | 1666 | 2475 | 
34 | 610 (SLLTEVETDIRNEWGCRCNDSSD; epitope peptide) [compound 610] | 813 |  | 2392
35 | 636 (SLLTEVETPIRNEIGCRCNDSSD; epitope peptide) [compound 636] | 768 |  | 2402
36 | 566 (SLLTEVCTPIRNEWGCRCNDSSD; epitope peptide) [compound 566] | 881 |  | 1210
37 | 667 (SLLTEVETPIRNEWGIRCNDSSD; epitope peptide) [compound 667] | 739 |  | 2211
38 | 595 (SLLTEVETPIRNEWGWRCNDSSD; epitope peptide) [compound 595] | 838 |  | 2439

Row | Substance | Signal (peptides that bind to 23K21 and 8I10) [1] | Signal (peptides that bind to Z3G1) [2] | Signal (peptides that show specific binding to Z3G1) [2]
39 | 371 (MSLCTEVGMSLLTEV; epitope peptide) [compound 371] | 1468 | 2691 | 
40 | 467 (SLLTEVENPIRNEWGCRCNDSSD; epitope peptide) [compound 467] | 1245 |  | 2549
41 | 663 (MCLCTCVGMSLLTEV; epitope peptide) [compound 663] | 746 | 2509 | 
42 | 379 (SLCTEVGCSCLCEV; epitope peptide) [compound 379] | 1421 |  | 1500
43 | 411 (SLLTEVETPIRNEWGCRCNDMSD; epitope peptide) [compound 411] | 744 | 2405 | 
44 | 388 (CSLLTEVGCLLTEV; epitope peptide) [compound 388] | 1351 |  | 2427
45 | 473 (SLSTEVETPIRNEWGCRCNDSSD; epitope peptide) [compound 473] | 1217 |  | 2052
46 | 482 (CLCTCVGSLLTEV; epitope peptide) [compound 482] | 1178 |  | 1953
47 | 692 (SLLTEVETPILNEWGCRCNDSSD; epitope peptide) [compound 692] | 721 |  | 2363
48 | 444 (SLLTEVETPIRNEWGCRC; epitope peptide) [compound 444] | 898 | 2478 | 
49 | 364 (CSLLTEVGCSLLTEV; epitope peptide) [compound 364] | 1499 | 2503 | 
50 | 401 (SLLTEVETPIRNEWGCRCNWSSD; epitope peptide) [compound 401] | 999 | 2556 | 
51 | 716 (SLLTEVETPIRNEFGCRCNDSSD; epitope peptide) [compound 716] | 702 |  | 2444
52 | 414 (SLLTEVETPIRNEWGCRCNDQSD; epitope peptide) [compound 414] | 739 | 2349 | 
53 | 301 (SLLCEVGCSLLTEC; epitope sequence) [compound 301] | 1959 |  | 2637
54 | 385 (CSLLTEVGCLCTCV; epitope peptide) [compound 385] | 1375 |  | 2474
55 | 377 (SLKTEVETPIRNEWGCRCNDSSD; epitope peptide) [compound 377] | 1434 |  | 1453
56 | 268 (SLLTEVETPIRNECGCRCNDSSD; epitope peptide) [compound 268] | 682 |  | 2554
57 | 312 (TLLTEVETPIRNEWGCRCNDSSD; epitope peptide) [compound 312] | 1855 |  | 2510
